Measurements as given in patent US20120238554A1, “SALTS OF POTASSIUM ATP CHANNEL OPENERS AND USES THEREOF” (priority 2007, published 2012).
Converted amounts (≈) assume the structure as drawn.

Assays:
[1] = Solubility in 100 mM phosphate buffer with titration, 18 h slurry (Table 15); type: physicochemical; settings: thermodynamic from solid, ambient
Protocol: Each determination was carried out in duplicate, slurrying each sample in a 100 mM phosphate buffer solution, pH 7.00. […] After this time all samples were centrifuged, and the supernatant was diluted with mobile phase (MeCN/Water.).

[2] = Moisture sorption analysis; type: physicochemical
Protocol: Moisture Sorption Analysis was performed with a Hiden IGAsorp Moisture Sorption Instrument, Samples were first dried at 0% relative humidity at 25° C. until an equilibrium weight was reached, or for a maximum of 4 hours. Samples were then subjected to an isothermal (25° C.) scan from 10-90% relative humidity in steps of 10%. The samples were allowed to equilibrate to an asymptotic weight at each point for a maximum of 4 hours. Following absorption, a desorption scan from […] relative humidity (at 25° C.) was run in steps of −10%, again allowing a maximum of 4 hours for the samples to equilibrate. The resulting samples after desorption were dried at 80° C. for two hours and analyzed by XRPD.

[3] = Form conversion and degradation under thermal stress (60° C.); settings: 60° C., closed, protected from light, 7 and 14 days
Protocol: Studies were also conducted to evaluate the likelihood for conversion and degradation under thermal stress.

[4] = tested on: patients with elevated fasting triglycerides; experiment: Diazoxide treatment of hypertriglyceridemia, 7 to 49 days: fasting triglycerides, LDL-cholesterol; type: in vivo, human; settings: for fasting triglycerides reduced: titrated patients
Protocol: All patients were dosed once per day for an uninterrupted period of time.
Patients were placed on a low fat diet at the start of treatment which continued to the end of treatment.
Each subject's baseline circulating triglyceride level was calculated as the average of two measurements of fasting triglycerides taken approximately two weeks apart, with the second taken predose on the first day of treatment.

[5] = tested on: cardiomyocytes from the infarct border zone; settings: cardiomyocytes from the infarct border zone (74 ms without, sham 41 ms); cited from earlier work
[6] = tested on: barbital-anesthetized open-chest pigs; settings: 3.5 mg/kg IV, 30 min occlusion, 3 h reflow, n=7; cited from earlier work
[7] = tested on: person with pulmonary hypertension; settings: oral diazoxide over six years; cited from earlier work
[8] = tested on: patients with primary pulmonary hypertension; settings: cited from earlier work
[9] = tested on: Zucker Diabetic Fatty (ZDF) rats; settings: 150 mg/kg/day, 8 weeks; cited from earlier work
[10] = Slurry studies of inter-conversion of the solid form; settings: room temperature, no light, 14 days; water, isopropyl alcohol, dichloromethane, toluene
obese subjects = experiment: Single 200 mg dose study: fasting glucose, insulin, NEFA, serum Na, K, creatinine; settings: either formulation
Protocol: Three exploratory endpoints were evaluated in the study. Blood glucose, insulin and non-esterified fatty acids (NEFA) were measured prior to dosing and at 1, 3, 6, 9, 12, 24, and 48 hours post dosing. Blood glucose and insulin levels were also assessed at end of study. Data collected at times 1, 3, 24, and 48 hours after dose administration were obtained under fasting conditions. The remaining data points were post-prandial measures.

For CC1=NS(=O)(=O)c2cc(Cl)ccc2N1 [diazoxide, 7-chloro-3-methyl-2H-1,2,4-benzothiadiazine 1,1 dioxide], the solubility at 18 h ([1]; pH 6.9, aqueous buffer, pH after slurry 6.90) was 70 µg/mL (≈ 303 µM), the solubility at 18 h ([1]; pH 7.31, aqueous buffer, pH after slurry 7.31) was 70 µg/mL (≈ 303 µM) and the “crystalline form after moisture sorption/desorption (XRPD)” value [2] was “same crystalline form”. The “hydrate formation (hysteresis upon desorption)” value ([2]; 25° C.) was “does not form a stable hydrate”, the “Moisture Sorption (hygroscopicity)” value ([2]; 25° C., listed as free form diazoxide) was “non-hygroscopic” and the water absorbed ([2]; 60% RH, 25° C.) was “approximately 0.04 wt %”. For the same compound, the water absorbed ([2]; 90% RH, 25° C.) was roughly 0.20 wt %, the “form conversion and degradation under thermal stress (XRPD, DSC)” value [3] was “no conversion or degradation” and the “reductions in fasting triglycerides” value ([4]; 100 mg per day diazoxide equivalent as Diazoxide Choline Controlled-Release Tablets, 7 days) was 38%. The “reductions in fasting triglycerides” value ([4]; 100 mg per day diazoxide equivalent, 14 days) was 18%, the “reductions in fasting triglycerides” value ([4]; 150 mg for 5 days then 300 mg for 9 days, at 7 and 14 days) was 50% and the “reductions in fasting triglycerides” value ([4]; 200 mg per day diazoxide equivalent, 7 days) was 23%. The “reductions in fasting triglycerides” value ([4]; 200 mg per day diazoxide equivalent, 14 days) was 20%, the “reductions in fasting triglycerides” value ([4]; 300 mg per day diazoxide equivalent, 7 days) was 18% and the “reductions in fasting triglycerides” value ([4]; 300 mg per day diazoxide equivalent, 14 days) was 29%. For the same compound, the “reductions in fasting triglycerides” value ([4]; 400 mg per day diazoxide equivalent, 7 days) was 50%, the “rise in LDL-cholesterol” value ([4]; Patient 13, day 21) was 6.7% and the “rise in LDL-cholesterol” value ([4]; Patient 13, day 42) was 11%. The “reductions in LDL-cholesterol” value ([4]; patient 8) was −8.6%, the “reductions in LDL-cholesterol” value ([4]; patient 9) was −15.3% and the fasting triglycerides reduced ([4]; end of treatment with 150 mg) was 21%. It also gave a fasting triglycerides reduced ([4]; end of treatment with 200 mg) of 31%, a fasting triglycerides reduced ([4]; end of treatment with 250 mg) of 38% and a fasting triglycerides reduced ([4]; end of treatment with 300 mg) of 38%. For the same compound, the fasting triglycerides reduced ([4]; end of treatment with 350 mg) was 49%, the action potential duration [5] was 42 ms and the “Infarct size (percentage of the area at risk)” value [6] was 14.6±7.4%. For the same compound, the pulmonary arterial pressure [7] was “reduced to normal levels”, the “change in pulmonary artery pressure” value ([8]; injected into the pulmonary artery, nine patients) was “no significant change” and the “patients unable to tolerate the drug” value ([8]; oral diazoxide given to seven patients) was “Five”. For the same compound, the “hepatic triglycerides, long chain acyl-CoA and cholesterol contents” value [9] was “decreased”, the “inter-conversion of the solid form in slurry” value [10] was “did not convert to alternate crystal forms” and the fasting glucose (obese subjects; 24 or 48 hours after dose administration) was “no evidence for a significant increase in fasting glucose”. For the same compound, the fasting insulin (obese subjects; after the single 200 mg dose) was “no evidence for a reduction in fasting insulin”.
